Here are results for six molecules from article PMC6070671, “Enhancement of Tumor Cell Death by Combining gef Gene Mediated Therapy and New 1,4-Benzoxazepin-2,6-Dichloropurine Derivatives in Breast Cancer Cells” (Frontiers in Pharmacology, 2018).

SMILES strings stand for the structures. Values joined by “and” are separate entries in the source; they are usually repeats but may differ in a detail not shown here. Identical values can stand only once.

Assay [1] concerns MCF-7 cell line. Briefly: Flow cytometric analysis of the cell cycle, MCF-7. The class given is cell-based, human. As to conditions: MCF-7, 72 h, IC50 of compound; for S phase cells: control 17.41 ± 0.81%; for G2/M phase cells: control 17.56 ± 0.87%. Here is the method:
(§1) Cells were grown at 70% confluence and treated with either DMSO alone or with different concentrations of the compounds corresponding to their IC50 values. Flow cytometry analysis was carried out after 72 h of treatment as described ([Marchal et al., 2004]). The results were representative of three independent experiments.
For orientation: In flow cytometry, cells or beads pass a laser one at a time.

For another assay, the system named is MCF-7TG cells. Briefly: In vitro cell proliferation assay over 15 days, MCF-7TG. It counts as cell-based, human. The following applies: for growth inhibition: MCF-7TG (gef expressed), 15 days of treatment; for type of synergistic effect with the gef gene: combined with gef gene, proliferation over 15 days. The protocol: (§2) MCF-7, MCF-7TG, and MCF-7pMAMneo cells were seeded at a density of 25 × 10^3/well into six-well plates using the culture conditions above mentioned. After 24 h, fresh medium was added to the cells and treated with IC50 and 2^∗IC50 of drugs cited in Table 1. No treatment was added to the control groups. To ensure the expression of the gef gene, MCF-7TG cells medium was always treated with 1 μM Dex. Cells in culture were always treated with or without drugs every 3 days when medium was changed up to the end of the assay. Four plates were used to run each treatment and time point (0, 3, 6, 9, 12, and 15 days of treatment). After the end of the treatment, we used sulforhodamine-B to stain the cells as previously described.

Assay [2] deals with MCF-7 cell line. Briefly: Annexin V-FITC/PI apoptosis flow cytometry, MCF-7. As to conditions: MCF-7, 72 h, IC50 of compound; control 8.15 ± 0.40%. It counts as cell-based, human. An excerpt:
(§3) Apoptosis was detected using the apoptosis detection kit for annexin V-FITC (Pharmingen, San Diego, CA, United States) by flow cytometry according to [Boulaiz et al. (2003a)]. […] The results were representative of three independent experiments.

In a further assay the test system is MCF-7 cancer cell line. Briefly: Sulforhodamine-B cytotoxicity assay, MCF-7. It counts as cell-based. The following applies: Homo sapiens, MCF7, 144 h, 6 days of treatment. The protocol: (§4) To assess the effect of the different drugs on cell viability we used the sulforhodamine-B colorimetric assay. Cells were resuspended and seeded at a density of 5 × 10^3 cells/well onto 12-well plates kept growing for 24 h. After that, the compounds were added at different concentrations to the cells (0.5, 0.7, 1, 2, 5, and 10 μM) (Figure 1). After 72 h treatment, the medium was discarded and fresh medium and treatment was added. Cells were maintained for 3 days more with the treatment. Finally, they were processed as previously described ([Boulaiz et al., 2003b]) using a Titertek Multiscan apparatus (Flow Laboratories, Irvine, United Kingdom) at 492 nm. We used the cell number for each cell stock before each cell growth experiment to set the linearity of the sulforhodamine-B assay. To calculate the IC50 values we used semilogarithmic dose–response curves to make a linear interpolation. All of the experiments were performed in triplicate wells for each treatment and were repeated at least twice.

For the next assay, the system named is MCF-7TG cancer cell line. Briefly: Sulforhodamine-B cytotoxicity assay, MCF-7TG (gef-expressing). It counts as cell-based. The following applies: Homo sapiens, 144 h; 6 days of treatment, gef gene induced with 1 μM Dex.
Text: (§5) The breast cancer cell line MCF-7 was kindly provided by Dr. N. Olea of the Sánchez Mora Tumoural Biology Institute (University Hospital of Granada). The MCF-7TG cell line, a gef-expressing breast cancer cell line controlled by a mouse mammary tumor virus promoter and inducible by dexamethasone (Dex) was derivates from MCF-7 cells following methodology previously described by us ([Boulaiz et al., 2003b]). A selected MCF-7pMAMneo empty vector positive clone was also used. Non-tumoral breast cell line MCF-10A (ATCC: CRL-10317) was provided by the Cell Bank of the University of Granada (Granada, Spain). MCF-7 cells were cultured in a humidified atmosphere at 37°C with 5% CO2 and Dulbecco’s modified Eagle Medium (DMEM) (Gibco, Grand Island, NY, United States) with 10% heat-inactivated fetal bovine serum (FBS) (Gibco), 2.7% sodium bicarbonate, 2% L-glutamine, 1% Hepes buffer, 500 mg/L ampicillin and 40 mg/L gentamicin. MCF-7TG cells were grown in the same medium described above supplemented by 200 μg/ml geneticin G418 and 1μM Dex to induce gef gene expression. MCF-10A grown in DMEM/F12 medium with 5% horse serum (HS), 0.02 μg/ml epithelial growth factor (EGF), 0.5 μg/ml hydrocortisone, 100 ng/ml cholera toxin and 0.01 μg/ml insulin.
as §4
In general terms: Sulforhodamine B stains cellular protein and so reports cell mass.

The next assay concerns MCF-7 cells. Briefly: In vitro cell proliferation assay over 15 days, MCF-7. It counts as cell-based, human. The following applies: MCF-7, 15 days of treatment. The protocol:
as §2

The test system of assay [3] is MCF-7TG cell line. Briefly: Flow cytometric analysis of the cell cycle, MCF-7TG. The class given is cell-based, human. As to conditions: 72 h, IC50 of compound. The protocol: as §1
Assay [4] relates to MCF-7TG cell line. Nature of the assay: Annexin V-FITC/PI apoptosis flow cytometry, MCF-7TG. It counts as cell-based, human. As to conditions: 72 h, IC50 of compound, control 0.74 ± 0.05%.
Text: as §3

Assay [5] relates to epithelial MCF-10A cell line. Briefly: Sulforhodamine-B cytotoxicity assay, MCF-10A. It counts as cell-based. The following applies: Homo sapiens, non-tumoral breast cell line.
Text: as §5, §4

As a reminder, the IC50 is the concentration needed to halve the response being measured. A higher IC50 goes with lower potency. Turning to `O=[N+]([O-])c1ccc(S(=O)(=O)N2CC(n3cnc4c(Cl)nc(Cl)nc43)OCc3ccccc32)cc1` (racemic) [Bozepinib, (R,S)-2,6-dichloro-9-[1-(p-nitrobenzenesulfonyl)-1,2,3,5-tetrahydro-4,1-benzoxazepine-3-yl]-9H-purine], the S phase cells in the assay with MCF-7 cell line [1] is given as 12.29 ± 0.90%. The G2/M phase cells in the assay with MCF-7 cell line [1] was 22.98 ± 1.14%. The growth inhibition with MCF-7TG cells (IC50 of compound) is reported as 81.42%; in the assay on MCF-7 cells (2*IC50 of compound) it was 89.42%; in the assay on MCF-7 cells (IC50 of compound), 76%. Moreover, the “type of synergistic effect with the gef gene” value (“type of synergistic effect” for short) in the assay on MCF-7TG cells is “enhanced synergetic effect”. In addition, in the assay with MCF-7 cell line [2], the “cells in early apoptosis” value is recorded as 40.41 ± 2.02%. The IC50 stood at 1.23 ± 0.05 µM with MCF-7 cancer cell line, 0.56 ± 0.01 µM in the assay with MCF-7TG cancer cell line and 6.33 ± 0.03 µM in assay [5]. The G0/G1 phase cells in the assay with MCF-7TG cell line [3] was determined as 85.98 ± 4.29%. The necrotic cells with MCF-7TG cell line [4] is listed as 47.03 ± 1.07%.
Turning to `COC(CN(c1ccccc1CO)S(=O)(=O)c1ccc([N+](=O)[O-])cc1)n1cnc2c(Cl)nc(Cl)nc21` (stereo not drawn) [ACG-812c-F1], the IC50 with MCF-7 cancer cell line amounted to 9.43 ± 0.07 µM; in the assay on MCF-7TG cancer cell line it was 8.75 ± 0.18 µM; in [5] it was 17.48 ± 0.12 µM.
For `O=[N+]([O-])c1ccccc1S(=O)(=O)N1CC(n2cnc3c(Cl)nc(Cl)nc32)OCc2ccccc21` (stereo not drawn) [FC-26c], the “type of synergistic effect” value with MCF-7TG cells is given as “enhanced synergetic effect”. For the same molecule, the “cells in early apoptosis” value in the assay on MCF-7 cell line [2] was determined as 37.63 ± 1.88%. Besides, the values for the IC50 (in the assay on MCF-7 cancer cell line; in the assay with MCF-7TG cancer cell line; in [5]) were 2.6 ± 0.1 µM, 0.65 ± 0.03 µM and 9.187 ± 0.08 µM, respectively. Moreover, the growth inhibition in the assay on MCF-7 cells (IC50 of compound) is on record as 61.6%. The same molecule showed a G0/G1 phase cells in the assay with MCF-7TG cell line [3] of 81.25 ± 4.05%. In addition, the necrotic cells in the assay with MCF-7TG cell line [4] worked out at 54.38 ± 2.3%.
As to `Nc1ccccc1S(=O)(=O)N1CC(n2cnc3c(Cl)nc(Cl)nc32)OCc2ccccc21` (stereo not drawn) [FC-29b], the S phase cells with MCF-7 cell line [1] amounted to 9.47 ± 0.30%. Also, the G2/M phase cells with MCF-7 cell line [1] is 26.12 ± 1.20%. The growth inhibition with MCF-7TG cells (2*IC50 of compound) was 70.48% and 70%; with MCF-7TG cells (IC50 of compound), 60%; with MCF-7 cells (2*IC50 of compound), 70.48% and 70%; with MCF-7 cells (IC50 of compound), 61.91%. Besides, in the assay with MCF-7TG cells, the “type of synergistic effect” value was “additive synergetic effect”. The “cells in early apoptosis” value in the assay with MCF-7 cell line [2] stood at 57.62 ± 2.88%. Also, the IC50 is 5.02 ± 0.12 µM in the assay with MCF-7 cancer cell line, 1.9 ± 0.02 µM in the assay with MCF-7TG cancer cell line and 4.04 ± 0.09 µM in assay [5]. In the assay on MCF-7TG cell line [3], this molecule gave a G0/G1 phase cells of 80.07 ± 4.01%. Besides, the necrotic cells in the assay with MCF-7TG cell line [4] was 51.92 ± 2.09%.
Take `O=S(=O)(c1ccccc1NO)N1CC(n2cnc3c(Cl)nc(Cl)nc32)OCc2ccccc21` (stereo not drawn) [FC-29d]: the IC50 with MCF-7 cancer cell line is 8.98 ± 0.3 µM; in the assay on MCF-7TG cancer cell line, 6.7 ± 0.01 µM; in [5], 47.12 ± 0.05 µM.
The molecule `O=[N+]([O-])c1ccccc1S(=O)(=O)N1CC(n2cnc3nc(Cl)nc(Cl)c32)OCc2ccccc21` (stereo not drawn) [FC-30b2] came in with a S phase cells in the assay with MCF-7 cell line [1] of 0.63 ± 0.01%. Moreover, the G2/M phase cells in the assay with MCF-7 cell line [1] was 33.22 ± 1.66%. Moreover, the growth inhibition with MCF-7TG cells (IC50 of compound) turned out to be 81.14%; in the assay with MCF-7 cells (2*IC50 of compound), 96%; in the assay with MCF-7 cells (IC50 of compound) it was 82%. In the assay on MCF-7TG cells, the “type of synergistic effect” value is “enhanced synergetic effect”. Moreover, the “cells in early apoptosis” value in the assay on MCF-7 cell line [2] is given as 73.27 ± 3.66%. Besides, the values for the IC50 (in the assay with MCF-7 cancer cell line; in the assay on MCF-7TG cancer cell line; in assay [5]) were 7.75 ± 0.06 µM, 1.8 ± 0.08 µM and 9.9 ± 0.08 µM, respectively. The molecule also returned a G0/G1 phase cells in the assay with MCF-7TG cell line [3] of 72.96 ± 3.50%. This molecule also had a necrotic cells with MCF-7TG cell line [4] of 65.09 ± 2.47%.
